Assay [1] relates to green LED-induced antinociception. The experiment in a line: Paw withdrawal latency (Hargreaves) after antagonists in green LED exposed naïve rats. The class given is in vivo, rat. From the text: Pathogen-free, adult male and female Sprague-Dawley as well as male Long Evans rats (weight at testing 250-350 g; Harlan-Sprague-Dawley, Indianapolis, Ind.) were housed in a climate-controlled room on a 12-h light/dark cycle and were allowed to have food and water ad libitum. All procedures were approved by the University of Arizona Animal Care and Use Committee and conform to the guidelines for the use of laboratory animals of the National Institutes of Health (publication no, 80-23, 1966). All behavioral experiments were conducted by experimenters blinded to the treatment conditions.
All visible spectrum LED flex strips were purchased from ledsupply.com (VT, USA). The specification of the LED were: (i) #LS-AC60-6-BL, 472 nanometer wavelength (i.e., blue), 8 watts, 120 Volts, 120 degree beam angle; (ii) #LS-AC60-6-GR, 525 nanometer wavelength (i.e., green), 8 watts, 120 Volts, 120 degree beam angle; and (iii) #LS-AC60-66-WH, white, 9.6 watts, 120 Volts, 120 degree beam angle. LED strips were affixed to the outside of clear plastic cages that housed the rats so as to avoid the strips from being chewed. Rats were exposed to the various LED in these cages with full access to food and water in a dark room devoid of any other source of light. Following behavioral assessment, the rats were returned to their cages for additional LED exposure. At the end of daily testing, the rats were returned to their regular animal room where they were exposed to regular room light (regular florescent bulbs). A lux meter (Tondaj LX1010B, Amazon.com) was used to determine the illuminance and luminous emittance of the LED strips.
(§1) The method of Hargreaves et al. was used. Rats were acclimated within Plexiglas enclosures on a clear glass plate maintained at 30° C. A radiant heat source (high-intensity projector lamp) was focused onto the plantar surface of the hind paw. When the paw was withdrawn, a motion detector halted the stimulus and a timer. A maximal cutoff of 33.5 sec was used to prevent tissue damage.
For intrathecal drug administration, rats were chronically implanted with catheters as described by Yaksh and Rudy. Rats were anesthetized with isoflurane and placed in a stereotactic device. The occipital muscles were separated from their occipital insertion and retracted caudally to expose the cisternal membrane at the base of the skull. Polyethylene tubing was passed caudally from the cisterna magna to the level of the lumbar enlargement. Animals were allowed to recover and were examined for evidence of neurologic injury. Animals with evidence of neuromuscular deficits were excluded.
The antinociceptive effects of green LED indicates a possible involvement of endogenous mediators linked to pain, such as opioids and cannabinoids. To test this hypothesis naïve rats exposed to green LED for eight hours daily for five days were administered antagonists and then PWLs were measured 20-30 minutes later.
Thus, to elucidate the role of die adrenergic system, several adrenergic receptors antagonists were tested. […] Additionally, rats exposed to green LED maintained regular grooming behaviors, which is in contrast to diminished grooming observed in stressed rats.

The conditions of assay [2]: calcium indicator, λex 340, 380 nm; cited from earlier work.
Assay [3] relates to rostral ventromedial medulla (RVM). The assay can be described thus: Lidocaine microinjection into the RVM, paw withdrawal latency in green LED exposed rats. The class given is in vivo, rat. To be noted: 2% lidocaine microinjected into the RVM of naïve rats exposed to green LED. How it is done: as §1
Rats received a bilateral guide cannula (26 GA, #C235-1.2 mm, Plastics One Inc.) directed to the RVM. The cannula was placed at: −11.0 from bregma, −7.5 mm from the dura and 0.6 mm on either side of the midline. Injections were made by expelling 0.5 μl through an injection cannula protruding 1 mm beyond the tip of the guide. Cannula placement was confirmed with 0.5 μl Evans Blue injected into both sides of the cannula and microscopic examination of medullary sections. Acute single injections into the RVM were performed by inserting an injector (Plastics One Inc) attached to a 2 μl Hamilton syringe and expelling 0.5 μl at the same coordinates.
Neurons within the rostral ventromedial medulla (RVM) have been reported to project to the spinal or medullary dorsal horns to directly or indirectly enhance or diminish nociceptive traffic. As this descending modulatory circuit is “opioid-sensitive”, next the contribution of the RVM in the green LED-induced antinociceptive response was examined.

For assay [4], the system named is rats. The experiment in a line: HIV sensory neuropathy model, thermal hyperalgesia (Hargreaves test). The class given is in vivo, rat. The note with it: intrathecal gp120, 300 ng. As for the experimental part:
as §1
(§2) Thermal hyperalgesia and mechanical allodynia are produced by intrathecal administration of the human immunodeficiency virus-1 (HIV-1) envelope glycoprotein, gp120 [60]. Seven days after implantation of an intrathecal catheter, baseline behavioral measurements were obtained and then rats were randomly assigned to two groups. On days 10 and 13, one group of rats were injected i.t. with 300 ng gp120 in a final volume of 20 µl in 0.9% saline while the other group were injected in a similar fashion with 0.9% saline.

The subject of assay [5] is rats. The assay can be described thus: HIV sensory neuropathy model, mechanical allodynia (von Frey test). To be noted: intrathecal gp120, 300 ng, compared to pre-gp120 baseline. The class given is in vivo, rat. As for the experimental part: The assessment of tactile allodynia (i.e., a decreased threshold to paw withdrawal after probing with normally innocuous mechanical stimuli) consisted of testing the withdrawal threshold of the paw in response to probing with a series of calibrated fine (von Frey) filaments. Each filament was applied perpendicularly to the plantar surface of the paw of rats held in suspended wire mesh cages. Withdrawal threshold was determined by sequentially increasing and decreasing the stimulus strength (the “up and down” method), and data were analyzed with the nonparametric method of Dixon, as described by Chaplan et al and expressed as the mean withdrawal threshold.
as §2

The mark [6] stands for this setting: cannabinoid receptor antagonists, systemic (i.p.) 1 mg/kg, green LED eight hours daily for five days, 1 mg/kg.
Where [7] appears, read: intrathecal (i.t.), 20 μg, green LED eight hours daily for five days, PWL 20-30 minutes after antagonist.
Where [8] appears, read: alpha- and beta-adrenergic receptor antagonists, i.p. (doses in Table 1), green LED exposed rats.

The values that follow come from patent publication US11607557B2, “Devices and systems for treating pain based on light therapy” (Arizona Board of Regents on Behalf of the University of …, priority 2016, dated 2023).

Entries after “also recorded” stand apart in the source; their conditions may differ.

For `Cc1c(C(=O)NN2CCCCC2)nn(-c2ccc(Cl)cc2Cl)c1-c1ccc(I)cc1` [AM251], the “effect on green LED-induced antinociception (paw withdrawal latency)” value (“effect” below) in assay [1] (setting [6]) is “reversed the green LED-induced antinociception; also recorded: reversed green LED-induced thermal analgesia”. Same read-out and setting: as for `COc1ccc(C(=O)c2c(C)n(CCN3CCOCC3)c3cc(I)ccc23)cc1` [AM630], the entry is “unaffected”. On to `CC(=O)OCOC(=O)CN(CC(=O)OCOC(C)=O)c1ccc(C)cc1OCCOc1cc2cc(-c3ncc(C(=O)OCOC(C)=O)o3)oc2cc1N(CC(=O)OCOC(C)=O)CC(=O)OCOC(C)=O` [Fura-2AM], for which the dissociation constant Kd (usually a measure of binding affinity in units of concentration) in assay [2] was 25 µM. For `C=CCN1CC[C@]23c4c5ccc(O)c4O[C@H]2C(=O)CC[C@@]3(O)[C@H]1C5` [Naloxone], the “effect” value was “reversed, to baseline levels” in assay [1] (setting [7]); “reversed green LED-induced thermal analgesia” in assay [1] (intrathecal (i.t.), 20 μg, green LED eight hours daily for five days, PWL 20-30 minutes after antagonist, listed as naloxone); “reversed, to baseline levels” in assay [1] (naloxone systemic (printed subcutaneous / 20 mg/kg i.p.), green LED eight hours daily for five days, PWL 20-30 minutes after antagonist, 20 mg/kg); “reversed green LED-induced thermal analgesia” in assay [1] (naloxone systemic (printed subcutaneous / 20 mg/kg i.p.), green LED eight hours daily for five days, PWL 20-30 minutes after antagonist, listed as naloxone, 20 mg/kg). On to `CC(COc1ccccc1)N(CCCl)Cc1ccccc1` (centres unmarked) [Phenoxybenzamine], for which the “effect” value in assay [1] (setting [8]) is “failed to prevent or reverse the antinociceptive effect of green LED; also recorded: failed to reverse green LED-induced thermal analgesia”.

As for `Cc1ccc(N(CC2=NCCN2)c2cccc(O)c2)cc1` [Phentolamine], the “effect” value in assay [1] (setting [8]) is on record as “failed to prevent or reverse the antinociceptive effect of green LED; also recorded: failed to reverse green LED-induced thermal analgesia”. Regarding `CCN(CC)CC(=O)Nc1c(C)cccc1C` [lidocaine], the “effect” value in assay [3] was “prevented the subsequent development of antinociception; also recorded: reversed green LED-induced thermal analgesia”. On to `CN1CC[C@]23c4c5ccc(O)c4O[C@H]2[C@@H](O)C=C[C@H]3[C@H]1C5` [morphine], for which the “effect” value in assay [1] (setting [7]) was “reversed the antinociception”. Take `CC(C)NCC(O)COc1cccc2ccccc12` (centres unmarked) [propranolol]: the “effect” value in assay [1] (setting [8]) is reported as “failed to prevent or reverse the antinociceptive effect of green LED; also recorded: failed to reverse green LED-induced thermal analgesia”. As to “gp120: viral envelope glycoprotein 120 of HIV-1, recombinant HIV-1 IIIB gp120, NIH AIDS Reagent Program”, the “thermal hyperalgesia (paw withdrawal latency)” value with rats [4] is recorded as “produced a thermal hyperalgesia”. The “mechanical allodynia (paw withdrawal threshold)” value in the assay on rats [5] is given as “lowered thresholds for paw withdrawals compared to baseline”.
